Measurements as given in PubChem BioAssay (NCI).
“And” between values parts separate entries of the source, which are not always exact repeats. Equal entries are not always repeated.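 Five compound concentrations were applied to cells in 96-well plates for 48 hours; endpoints were derived by simple linear interpolation of the resulting dose-response curve. GI50: concentration for 50% inhibition of growth. TGI: concentration producing complete growth inhibition.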

Tests used:
Experiment in all cases: NCI tumour cell line growth inhibition, 48 h
SNB-75 CNS = system: SNB-75 CNS
SN12C renal = system: SN12C renal
HCC-2998 colon = system: HCC-2998 colon
SF-268 CNS = system: SF-268 CNS
SK-MEL-2 melanoma = system: SK-MEL-2 melanoma
T-47D breast = system: T-47D breast
MCF7 breast = system: MCF7 breast
IGROV1 ovarian = system: IGROV1 ovarian
BT-549 breast = system: BT-549 breast
HCT-15 colon = system: HCT-15 colon

Row | Compound | GI50 (SNB-75 CNS) | TGI (SNB-75 CNS) | GI50 (SN12C renal) | TGI (SN12C renal) | GI50 (HCC-2998 colon) | TGI (HCC-2998 colon) | GI50 (SF-268 CNS) | TGI (SF-268 CNS) | GI50 (SK-MEL-2 melanoma) | TGI (SK-MEL-2 melanoma) | GI50 (T-47D breast) | TGI (T-47D breast) | GI50 (MCF7 breast) | TGI (MCF7 breast) | GI50 (IGROV1 ovarian) | TGI (IGROV1 ovarian) | GI50 (BT-549 breast) | TGI (BT-549 breast) | GI50 (HCT-15 colon) | TGI (HCT-15 colon)
1 | C#Cc1cccc(Nc2nc(Cl)nc3cc(NC(=O)CCl)ccc23)c1 | 1.13 µM | 5.13 µM | 0.637 µM | 1.8 µM | 0.7 µM | 2.02 µM | 0.557 µM | 1.48 µM | 1.16 µM | 3.6 µM | 0.556 µM | 1.65 µM | 0.61 µM | 3.12 µM | 0.5 µM | 1.12 µM | 0.531 µM | 2.57 µM | 0.592 µM | 2.03 µM
2 | Cn1cc(C2=C(c3c[nH]c4ccccc34)C(=O)NC2=O)c2ccccc21 | 0.071 µM | > 7.62 µM | 1.32 µM | > 25 µM | 6.66 µM | > 25 µM | 1.1 µM | > 25 µM | 1.09 µM | > 25 µM | 0.846 µM | > 25 µM | 0.278 µM | > 25 µM | 0.975 µM | > 25 µM | 0.314 µM | > 7.28 µM | 1.12 µM | > 25 µM
3 | CN1Cc2ccccc2/C=C\c2ccccc21 |  | > 100 µM |  | > 100 µM |  | > 100 µM |  | > 100 µM |  | 80.2 µM |  | > 100 µM |  | 67.9 µM |  | > 100 µM |  | > 100 µM |  | > 100 µM
4 | NC(=O)c1ccc(Oc2nccc(-c3c(-c4ccc(F)cc4)ncn3C3CCNCC3)n2)cc1 | > 25 µM | > 25 µM | > 25 µM | > 25 µM | > 25 µM | > 25 µM | > 25 µM | > 25 µM | > 25 µM | > 25 µM | > 25 µM | > 25 µM | > 25 µM | > 25 µM | > 25 µM | > 25 µM | > 25 µM | > 25 µM | > 25 µM | > 25 µM
5 | O=C1/C(=C/c2ccc(F)cc2)CN(C(=O)CCN2CCC(=NO)CC2)C/C1=C\c1ccc(F)cc1 | 2.29 µM | 7.5 µM | 1.2 µM | 3.64 µM | 1.5 µM | 3.08 µM | 2.02 µM | 5.46 µM | 4.07 µM | 12.4 µM | 2.56 µM | 9.55 µM | 0.768 µM | 4.59 µM | 1.43 µM | 3.42 µM | 1.58 µM | 3.21 µM | 0.691 µM | 2.6 µM
6 | O=C(NC(=O)c1c(Cl)nc2sccn12)Nc1ccc(Cl)cc1 |  | 47.1 µM |  | > 100 µM |  | > 93.6 µM |  | 53.9 µM |  | > 100 µM |  | > 100 µM |  | > 100 µM |  | > 100 µM |  | > 81.9 µM |  | > 100 µM
7 | CCCCCC(O)C(O)CCC[C@H](O)[C@H]1CC[C@H]([C@H]2CC[C@H]([C@H](O)CCCCCCCCCCCCC3=C[C@H](C)OC3=O)O2)O1 (stereo partly drawn) | 15.2 µM | 37.9 µM | 13.6 µM | 66.6 µM |  | 41.3 µM | 12.4 µM | 40.8 µM | 15.8 µM | 5.16 µM and 37.4 µM | 2.12 µM | 25.6 µM | 3.78 µM | 31.4 µM | 7.46 µM | 29.4 µM |  | 2.79 µM and 25.5 µM | 5.48 µM | 40.6 µM
